This test has as its system capacitative calcium entry (CCE) in IP3 receptor-deficient strain of cell line DT40.

Like-named read-outs stand apart in the source and are kept apart here.
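Also: intracellular Ca2+ read as 340/380 nm excitation ratio at 510 nm emission, stores emptied by thapsigargin without external Ca2+, then 2 mM CaCl2 added, inhibition of the ensuing Ca2+ rise.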

Protocol: (Assay of Capacitative Calcium Entry Inhibition)
Its 510 nm fluorescence obtained at 340 nm and 380 nm is measured and the fluorescence ratio F340/380 is measured to determine the intracellular calcium ion concentration. Next, thapsigargin (an endoplasmic reticulum calcium ion pump inhibitor) is allowed to act without calcium ion in an extracellular fluid to deplete an intracellular calcium store. Calcium chloride at a final concentration of 2 mM is added to the extracellular fluid. The IC50 value is calculated by estimating the effect of each compound on the degree of increase in the intracellular calcium concentration at the time of the addition.

As to `CN(C)CCOB(c1ccc(COCc2ccc(B(OCCN(C)C)c3ccc(C(F)(F)F)cc3)cc2)cc1)c1ccc(C(F)(F)F)cc1` [Example 106, Bis(4,4′-(p-trifluoromethylphenyl-N,N-dimethylaminoethoxyboryl)benzyl) ether], the inhibition runs as follows: (1 µM) 30%; (3 µM) 100%.

For `NCCOB(c1ccc(COCc2ccc(B(OCCN)c3ccc(C(F)(F)F)cc3)cc2)cc1)c1ccc(C(F)(F)F)cc1` [Example 108, Bis(4,4′-(p-trifluoromethylphenyl-aminoethoxyboryl)benzyl) ether], the inhibition (1 µM) came to 20% and the inhibition (3 µM) was determined as 100%.

Turning to `CNCCOB(c1ccccc1)c1ccc(COc2ccc(B(OCCNC)c3ccccc3)cc2)cc1` [Example 109, (4-Phenyl-N-methylaminoethoxyborylphenyl) 4′-(N-methylaminoethoxyborylbenzyl) ether], the inhibition amounted to 80% (1 µM) and 100% (3 µM).

Take `CN(C)CCOB(c1ccccc1)c1ccc(COc2ccc(B(OCCN(C)C)c3ccccc3)cc2)cc1` [Example 110, (4-Phenyl-N,N-dimethylaminoethoxyborylphenyl) 4′-(N,N-dimethylaminoethoxyborylbenzyl) ether]: the inhibition (1 µM) was 20% and the inhibition (3 µM) was found to be 100%.

For the molecule `c1ccc(B(OCc2ccccn2)c2ccc(COc3ccc(B(OCc4ccccn4)c4ccccc4)cc3)cc2)cc1` [Example 111, (4-Phenyl-2-pyridylmethoxyborylphenyl) (4′-phenyl-2-pyridylmethoxyborylbenzyl) ether], the inhibition (1 µM) turned out to be 20% and the inhibition (3 µM) was found to be 100%.

On to `c1ccc(B(OCC2CCCN2)c2ccc(COCc3ccc(B(OCC4CCCN4)c4ccccc4)cc3)cc2)cc1` (stereo not drawn) [Example 134, Bis(4,4′-(phenyl-2-pyrrolidinemethoxyboryl)benzyl) ether], for which the inhibition (1 µM) amounted to 20% and the inhibition (3 µM) is 100%.

In the case of `CCCCNCCOB(c1ccccc1)c1ccc(COCc2ccc(B(OCCNCCCC)c3ccccc3)cc2)cc1` [Example 136, Bis(4,4′-(phenyl-butylaminoethoxyboryl)benzyl) ether], the inhibition by setting is: (1 µM) 30%; (3 µM) 100%.

For the molecule `NCC(OB(c1ccccc1)c1cccc(COCc2cccc(B(OC(CN)c3ccccc3)c3ccccc3)c2)c1)c1ccccc1` (stereo not drawn) [Example 150, Bis(3,3′-(phenyl-2-amino-1-phenylethoxyboryl)benzyl) ether], the inhibition amounted to 50% (1 µM) and 100% (3 µM).

For `CNCCOB(c1ccccc1)c1cccc(COCc2cccc(B(OCCNC)c3ccccc3)c2)c1` [Example 151, Bis(3,3′-(phenyl-N-methylethoxyboryl)benzyl) ether], the inhibition was determined as 60% (1 µM) and 100% (3 µM).

On to `CC(CCNCCN)OB(c1ccccc1)c1cccc(COCc2cccc(B(OC(C)CCNCCN)c3ccccc3)c2)c1` (stereo not drawn) [Example 152, Bis(3,3′-(phenyl-N-aminoethyl-1-methyl-3-aminopropoxyboryl)benzyl) ether], for which the inhibition is, setting by setting: (1 µM) 40%; (3 µM) 80%.

For the molecule `CCCCNCCB(c1ccccc1)c1cccc(COCc2cccc(B(CCNCCCC)c3ccccc3)c2)c1` [Example 155, Bis(3,3′-(phenyl-N-butylaminoethylboryl)benzyl) ether], the inhibition is, setting by setting: (1 µM) 95%; (3 µM) 100%.

As to `c1ccc(B(OCc2ccccn2)c2ccc(Oc3ccc(B(OCc4ccccn4)c4ccccc4)cc3)cc2)cc1` [Example 160, Bis(4,4′-(phenyl-2-pyridylmethoxyboryl)phenyl) ether], the inhibition (3 µM) is 0% and the inhibition (10 µM) was found to be 100%.

For `NC(COB(c1ccccc1)c1ccc(COCc2ccc(B(OCC(N)c3ccccc3)c3ccccc3)cc2)cc1)c1ccccc1` (stereo not drawn) [Example 164, Bis(4,4′-(phenyl-2-phenyl-2-amino-ethoxyboryl)benzyl) ether], the inhibition by setting is: (3 µM) 100%; (10 µM) 100%.

Consider “Bis(4,4′-(phenyl-N-methylpiperidine-methoxyboryl)benzyl) ether [Example 139]”, for which the inhibition came out at 40% (1 µM) and 100% (3 µM).

For the molecule “Bis(4,4′-(phenyl-ornithineboryl)phenyl) ether [Example 117]”, the inhibition was determined as 80% (1 µM) and 100% (3 µM).

The record behind these values is patent US8017809B2, “Bisboron compound” (Japan Science and Technology Agency, priority 2005, dated 2011).
